In patent US8436014B2, “Solid forms of N-(4-(7-azabicyclo[2.2.1]heptan-7-yl)-2-(trifluorormethyl)phenyl)-4-oxo-5-(trifluoromethyl)-1,4-dihyroquinoline-3-carboxamide” (Vertex Pharmaceutical Incorporated, priority 2008, dated 2013):

Biological target: T1, ΔF508-CFTR (Homo sapiens, UniProt P13569, DEL508-508)
T1 construct: expressed in transfected cells
Assay: Membrane potential optical assay for ΔF508-CFTR potentiation (FLIPR III, voltage sensing dyes)
Type: cell-based
Details: assay not named in the result sentence
From the text: Membrane Potential Optical Methods for Assaying ΔF508-CFTR Modulation Properties of Compounds
The assay utilizes fluorescent voltage sensing dyes to measure changes in membrane potential using a fluorescent plate reader (e.g., FLIPR III, Molecular Devices, Inc.) as a readout for increase in functional ΔF508-CFTR in NIH 3T3 cells. The driving force for the response is the creation of a chloride ion gradient in conjunction with channel activation by a single liquid addition step after the cells have previously been treated with compounds and subsequently loaded with a voltage sensing dye.
To identify potentiators of ΔF508-CFTR, a double-addition HTS assay format was developed. This HTS assay utilizes fluorescent voltage sensing dyes to measure changes in membrane potential on the FLIPR III as a measurement for increase in gating (conductance) of ΔF508 CFTR in temperature-corrected ΔF508 CFTR NIH 3T3 cells. The driving force for the response is a Cl− ion gradient in conjunction with channel activation with forskolin in a single liquid addition step using a fluoresecent plate reader such as FLIPR III after the cells have previously been treated with potentiator compounds (or DMSO vehicle control) and subsequently loaded with a redistribution dye.
Solutions • Bath Solution #1: (in mM) NaCl 160, KCl 4.5, CaCl2 2, MgCl2 1, HEPES 10, pH 7.4 with NaOH. […]

T1 sequence (P13569 with tags, fused parts or gaps DEL508-508): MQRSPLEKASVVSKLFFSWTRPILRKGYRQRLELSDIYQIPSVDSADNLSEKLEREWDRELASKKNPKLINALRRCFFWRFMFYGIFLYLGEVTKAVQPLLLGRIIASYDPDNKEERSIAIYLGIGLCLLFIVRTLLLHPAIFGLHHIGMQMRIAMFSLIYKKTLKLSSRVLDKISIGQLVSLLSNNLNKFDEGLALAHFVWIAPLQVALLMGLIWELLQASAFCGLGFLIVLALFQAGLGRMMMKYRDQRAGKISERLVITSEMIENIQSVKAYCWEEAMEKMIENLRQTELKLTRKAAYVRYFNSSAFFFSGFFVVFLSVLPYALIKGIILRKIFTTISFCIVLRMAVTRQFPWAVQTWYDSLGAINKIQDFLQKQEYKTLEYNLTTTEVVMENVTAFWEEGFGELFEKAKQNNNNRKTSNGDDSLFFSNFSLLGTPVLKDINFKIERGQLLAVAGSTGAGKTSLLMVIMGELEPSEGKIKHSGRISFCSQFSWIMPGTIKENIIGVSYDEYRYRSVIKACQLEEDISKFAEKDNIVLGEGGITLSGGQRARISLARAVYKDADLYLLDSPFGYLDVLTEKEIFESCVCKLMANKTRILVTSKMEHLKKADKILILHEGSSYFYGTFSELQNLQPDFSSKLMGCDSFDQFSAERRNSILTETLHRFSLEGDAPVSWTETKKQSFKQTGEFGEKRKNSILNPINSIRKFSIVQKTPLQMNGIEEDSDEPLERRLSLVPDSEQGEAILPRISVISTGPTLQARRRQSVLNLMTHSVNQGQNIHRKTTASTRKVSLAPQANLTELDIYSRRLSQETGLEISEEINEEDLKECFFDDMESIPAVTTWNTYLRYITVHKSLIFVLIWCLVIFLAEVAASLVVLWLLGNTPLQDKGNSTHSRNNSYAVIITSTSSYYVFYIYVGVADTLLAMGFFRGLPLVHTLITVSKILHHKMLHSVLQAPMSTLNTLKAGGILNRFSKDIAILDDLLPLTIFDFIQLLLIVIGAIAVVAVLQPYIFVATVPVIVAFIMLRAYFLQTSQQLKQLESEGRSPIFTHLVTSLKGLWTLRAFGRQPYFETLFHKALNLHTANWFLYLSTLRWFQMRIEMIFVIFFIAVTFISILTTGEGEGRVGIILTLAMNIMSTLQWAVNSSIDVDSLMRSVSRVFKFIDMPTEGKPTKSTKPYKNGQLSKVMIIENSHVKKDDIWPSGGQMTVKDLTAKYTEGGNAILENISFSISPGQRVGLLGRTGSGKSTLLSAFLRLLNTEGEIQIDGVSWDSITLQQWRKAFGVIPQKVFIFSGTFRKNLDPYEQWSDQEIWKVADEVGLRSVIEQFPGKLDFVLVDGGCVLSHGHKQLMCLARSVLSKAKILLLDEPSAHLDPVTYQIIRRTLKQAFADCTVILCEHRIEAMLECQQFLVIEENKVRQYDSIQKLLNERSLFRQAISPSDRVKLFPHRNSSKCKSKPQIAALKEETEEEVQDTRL

O=C(Nc1ccc(N2C3CCC2CC3)cc1C(F)(F)F)c1c[nH]c2cccc(C(F)(F)F)c2c1=O [Compound 1 Form A, N-(4-(7-azabicyclo[2.2.1]heptan-7-yl)-2-(trifluoromethyl)phenyl)-4-oxo-5-(trifluoromethyl)-1,4-dihydroquinoline-3-carboxamide]
EC50: < 2000 nM
